From ChEMBL document CHEMBL1201862, “PubChem BioAssay data set” (2004)
The source made the active and inactive calls.

How the values were obtained:
[1] = decrease of insulin promoter-GFP reporter – imaging, high-content screening, mouse beta cells (AID 1628); type: functional; details: MIN6
[2] = MIN6 cell viability loss – mouse insulinoma, cytotoxicity control, dose response (AID 2122); type: functional;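 also: confirmatory high-throughput counterscreen run to flag cytotoxic compounds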
Tumor necrosis factor = Tumor necrosis factor (Homo sapiens, UniProt P01375); test: analog potency on TNFa NF-kB signaling – cell-based, revised, SAR follow-up (AID 2337); type: functional
Sequence of Tumor necrosis factor (P01375 whole entry, the tested form may be a part): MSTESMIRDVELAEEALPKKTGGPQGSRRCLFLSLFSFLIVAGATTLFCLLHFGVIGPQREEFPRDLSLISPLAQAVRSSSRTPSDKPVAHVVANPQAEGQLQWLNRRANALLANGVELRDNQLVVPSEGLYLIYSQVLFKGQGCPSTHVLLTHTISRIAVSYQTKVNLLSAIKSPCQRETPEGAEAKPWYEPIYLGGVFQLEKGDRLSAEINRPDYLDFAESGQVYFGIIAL

[3] = target: Nucleotide-binding oligomerization domain-containing protein 1 (Homo sapiens, UniProt Q9Y239); test: blockers of NOD1 pathway activity – revised, SAR follow-up (AID 2333); type: functional
Sequence of Nucleotide-binding oligomerization domain-containing protein 1 (Q9Y239 whole entry, the tested form may be a part): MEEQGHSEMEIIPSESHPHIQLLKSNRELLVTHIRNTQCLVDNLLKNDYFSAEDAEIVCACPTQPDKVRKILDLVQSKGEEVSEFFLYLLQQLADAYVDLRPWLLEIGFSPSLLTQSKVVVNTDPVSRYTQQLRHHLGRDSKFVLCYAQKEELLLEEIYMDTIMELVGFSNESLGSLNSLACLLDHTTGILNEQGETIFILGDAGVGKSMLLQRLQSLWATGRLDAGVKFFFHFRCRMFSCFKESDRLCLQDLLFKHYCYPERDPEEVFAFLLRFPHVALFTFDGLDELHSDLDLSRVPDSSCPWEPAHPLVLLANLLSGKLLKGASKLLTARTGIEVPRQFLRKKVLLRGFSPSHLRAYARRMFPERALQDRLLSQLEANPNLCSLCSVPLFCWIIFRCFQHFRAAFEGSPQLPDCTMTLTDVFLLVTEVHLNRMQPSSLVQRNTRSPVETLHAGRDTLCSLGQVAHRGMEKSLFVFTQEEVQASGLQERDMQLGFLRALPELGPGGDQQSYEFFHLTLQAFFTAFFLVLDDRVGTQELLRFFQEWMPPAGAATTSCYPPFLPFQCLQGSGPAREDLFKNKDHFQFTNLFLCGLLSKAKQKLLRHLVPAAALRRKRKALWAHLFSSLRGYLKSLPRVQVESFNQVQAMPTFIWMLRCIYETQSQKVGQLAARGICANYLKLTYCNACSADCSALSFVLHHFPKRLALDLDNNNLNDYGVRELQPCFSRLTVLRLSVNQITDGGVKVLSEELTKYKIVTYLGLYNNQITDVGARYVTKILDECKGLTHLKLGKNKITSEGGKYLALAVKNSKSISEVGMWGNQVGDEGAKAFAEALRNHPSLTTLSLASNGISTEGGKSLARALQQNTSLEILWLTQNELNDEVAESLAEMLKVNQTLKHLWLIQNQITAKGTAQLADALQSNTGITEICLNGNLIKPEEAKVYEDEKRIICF

[4] = HEK-293T viability loss after treatment – luminescence, T-cell screen hits, cytotoxicity control for TCR NF-kB inhibitor project, dose response (AID 489026); type: functional, cell-based;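 also: cells exposed to compound about 14 hours before the viability readout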
[5] = reduction of Shn3 3'UTR-driven luciferase in osteoblasts – cell-based, Clone20 osteoblasts, firefly luciferase, cherry-picked, dose response (AID 624132); type: functional;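 also: firefly luciferase luminescence from reporter carrying the Shn3 3'UTR in osteoblasts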
[6] = loss of viability in HepG2 cells – cell-based, CellTiter-Glo, cherry-picked, cytotoxicity control for Shn3 inhibitor project, dose response (AID 624134); type: functional
[7] = non-specific 3'UTR reporter inhibition in Clone20-Shn3RL – cell-based, Renilla luciferase, cherry-picked, counter-screen for Shn3 inhibitor project, dose response (AID 624133); type: functional
HEK293 = test: cells; details: Homo sapiens;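 also: cells exposed to compound for 14 hours overnight before viability readout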
BJ [8] = test: BJ-TERT fibroblast viability loss – cell-based, RAS-independent, luminescence, dose response (AID 1933); type: functional; details: Homo sapiens
BJ [9] = test: cells; type: functional, cell-based; details: Homo sapiens
BJ [10] = test: BJ-TERT-LT-ST fibroblast viability loss – cell-based, RAS-independent, luminescence, dose response (AID 1935); type: functional; details: Homo sapiens;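 also: BJ fibroblasts immortalized with TERT plus LT and ST oncogenes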
[11] = DRD fibroblast viability loss – cell-based, non-viral oncogenic, luminescence, dose response (AID 1934); type: functional; details: Homo sapiens
[12] = Intein inhibitors as potential Tuberculosis drugs, a cytotoxicity screen. [Related pubchem assays (depositor defined):AID2221, AID2223, AID434968, AID435010, AID449749, AID449750, AID489010]; type: functional
Hexokinase HKDC1 = target: T1, Hexokinase HKDC1 (Homo sapiens, UniProt Q2TB90); test: inhibition of HKDC1 glucose phosphorylation – biochemical, W721R variant, dose response (AID 504729); type: functional
T1 sequence (Q2TB90 whole entry): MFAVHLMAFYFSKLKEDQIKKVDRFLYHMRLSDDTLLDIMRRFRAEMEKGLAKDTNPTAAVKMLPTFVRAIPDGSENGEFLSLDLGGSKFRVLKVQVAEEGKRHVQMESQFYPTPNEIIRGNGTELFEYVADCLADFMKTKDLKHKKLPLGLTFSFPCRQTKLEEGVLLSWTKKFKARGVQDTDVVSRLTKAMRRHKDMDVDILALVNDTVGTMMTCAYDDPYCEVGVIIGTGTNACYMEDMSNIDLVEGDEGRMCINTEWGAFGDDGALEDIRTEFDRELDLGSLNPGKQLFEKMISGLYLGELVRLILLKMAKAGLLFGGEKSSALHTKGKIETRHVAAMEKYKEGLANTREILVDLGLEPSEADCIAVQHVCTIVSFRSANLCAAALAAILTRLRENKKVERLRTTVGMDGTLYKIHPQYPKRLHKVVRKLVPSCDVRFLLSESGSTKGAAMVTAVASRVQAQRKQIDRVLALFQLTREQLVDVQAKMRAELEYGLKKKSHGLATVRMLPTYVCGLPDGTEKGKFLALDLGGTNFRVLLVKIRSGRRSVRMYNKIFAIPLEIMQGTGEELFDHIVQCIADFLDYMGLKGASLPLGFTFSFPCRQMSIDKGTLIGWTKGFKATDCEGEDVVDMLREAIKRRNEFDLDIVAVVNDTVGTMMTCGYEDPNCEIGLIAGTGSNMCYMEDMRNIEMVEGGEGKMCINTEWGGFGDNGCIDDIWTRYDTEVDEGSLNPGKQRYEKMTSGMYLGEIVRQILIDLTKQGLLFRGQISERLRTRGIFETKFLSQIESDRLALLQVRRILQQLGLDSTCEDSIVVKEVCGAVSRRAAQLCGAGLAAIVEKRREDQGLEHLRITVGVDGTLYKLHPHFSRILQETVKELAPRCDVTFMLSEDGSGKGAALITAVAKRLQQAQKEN

[13] = target: T2, Replicative DNA helicase DnaB (Mycobacterium tuberculosis, UniProt P9WMR3); test: DnaB intein splicing inhibitors, dose response, biochemical, cell-free fluorescence (AID 449749); type: functional
T2 sequence (P9WMR3 whole entry): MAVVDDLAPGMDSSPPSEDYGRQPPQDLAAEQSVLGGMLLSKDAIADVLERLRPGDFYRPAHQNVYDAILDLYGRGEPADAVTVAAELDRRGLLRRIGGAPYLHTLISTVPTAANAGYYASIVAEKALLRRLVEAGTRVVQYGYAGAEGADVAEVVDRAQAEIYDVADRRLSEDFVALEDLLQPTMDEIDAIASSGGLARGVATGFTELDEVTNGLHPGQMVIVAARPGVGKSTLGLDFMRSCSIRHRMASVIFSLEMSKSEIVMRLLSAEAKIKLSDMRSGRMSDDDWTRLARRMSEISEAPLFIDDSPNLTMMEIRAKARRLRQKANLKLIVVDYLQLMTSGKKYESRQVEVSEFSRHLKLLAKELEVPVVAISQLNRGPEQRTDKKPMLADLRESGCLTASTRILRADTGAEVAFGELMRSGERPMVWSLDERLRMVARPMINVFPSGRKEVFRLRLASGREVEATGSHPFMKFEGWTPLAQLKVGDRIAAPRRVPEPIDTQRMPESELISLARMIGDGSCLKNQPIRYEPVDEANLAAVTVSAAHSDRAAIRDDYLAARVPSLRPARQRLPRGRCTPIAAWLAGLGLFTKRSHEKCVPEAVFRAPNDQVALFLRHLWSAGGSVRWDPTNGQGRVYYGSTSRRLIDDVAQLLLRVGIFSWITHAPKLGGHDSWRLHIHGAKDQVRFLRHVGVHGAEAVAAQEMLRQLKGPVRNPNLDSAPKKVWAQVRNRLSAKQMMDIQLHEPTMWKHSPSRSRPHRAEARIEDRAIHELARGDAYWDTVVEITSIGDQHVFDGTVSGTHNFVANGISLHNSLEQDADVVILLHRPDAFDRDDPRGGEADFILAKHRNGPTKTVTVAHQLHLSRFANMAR

Protein RecA = target: T3, Protein RecA (Mycobacterium tuberculosis, UniProt P9WHJ3); test: Fluorescence Cell-Free Homogeneous Dose Retest to Identify Inhibitors of RecA-Intein Splicing Activity. [Related pubchem assays (depositor defined):AID2097, AID2223, AID489010, AID492950]; type: functional
T3 sequence (P9WHJ3 whole entry): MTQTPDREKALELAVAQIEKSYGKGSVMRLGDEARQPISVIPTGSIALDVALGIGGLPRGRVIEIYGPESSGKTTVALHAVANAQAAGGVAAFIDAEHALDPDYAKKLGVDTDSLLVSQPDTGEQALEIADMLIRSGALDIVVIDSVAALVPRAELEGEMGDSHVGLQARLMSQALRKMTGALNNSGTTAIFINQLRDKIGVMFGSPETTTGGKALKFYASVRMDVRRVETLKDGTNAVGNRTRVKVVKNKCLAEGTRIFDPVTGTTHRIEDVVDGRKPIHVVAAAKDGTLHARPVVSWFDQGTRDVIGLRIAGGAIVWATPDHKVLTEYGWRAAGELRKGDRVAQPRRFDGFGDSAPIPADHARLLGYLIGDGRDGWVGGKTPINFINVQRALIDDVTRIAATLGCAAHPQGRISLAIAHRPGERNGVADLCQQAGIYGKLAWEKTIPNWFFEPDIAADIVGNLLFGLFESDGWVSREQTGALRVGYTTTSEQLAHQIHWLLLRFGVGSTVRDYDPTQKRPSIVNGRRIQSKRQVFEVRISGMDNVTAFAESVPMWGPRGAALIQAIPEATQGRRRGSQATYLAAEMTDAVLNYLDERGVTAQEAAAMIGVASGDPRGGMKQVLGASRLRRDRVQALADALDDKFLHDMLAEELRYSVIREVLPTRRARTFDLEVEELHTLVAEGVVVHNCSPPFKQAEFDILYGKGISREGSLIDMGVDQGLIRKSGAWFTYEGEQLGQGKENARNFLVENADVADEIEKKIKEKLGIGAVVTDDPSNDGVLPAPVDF

[14] = target: Glyceraldehyde-3-phosphate dehydrogenase (Homo sapiens, UniProt P04406)
Sequence of Glyceraldehyde-3-phosphate dehydrogenase (P04406 whole entry): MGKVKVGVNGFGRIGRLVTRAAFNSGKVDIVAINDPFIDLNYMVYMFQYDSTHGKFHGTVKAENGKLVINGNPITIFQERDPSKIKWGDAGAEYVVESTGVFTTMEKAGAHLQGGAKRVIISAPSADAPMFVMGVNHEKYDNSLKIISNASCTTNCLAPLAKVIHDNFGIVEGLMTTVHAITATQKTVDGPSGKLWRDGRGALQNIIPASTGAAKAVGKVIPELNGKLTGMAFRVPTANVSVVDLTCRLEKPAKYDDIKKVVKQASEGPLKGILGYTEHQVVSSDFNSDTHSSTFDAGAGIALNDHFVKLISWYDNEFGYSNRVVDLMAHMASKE

[15] = target: T4, Alkaline phosphatase, tissue-nonspecific isozyme (Homo sapiens, UniProt P05186); test: potency against alkaline phosphatase TNAP – biochemical, luminescent, dose response, SAR follow-up (AID 1056)
T4 sequence (P05186 whole entry): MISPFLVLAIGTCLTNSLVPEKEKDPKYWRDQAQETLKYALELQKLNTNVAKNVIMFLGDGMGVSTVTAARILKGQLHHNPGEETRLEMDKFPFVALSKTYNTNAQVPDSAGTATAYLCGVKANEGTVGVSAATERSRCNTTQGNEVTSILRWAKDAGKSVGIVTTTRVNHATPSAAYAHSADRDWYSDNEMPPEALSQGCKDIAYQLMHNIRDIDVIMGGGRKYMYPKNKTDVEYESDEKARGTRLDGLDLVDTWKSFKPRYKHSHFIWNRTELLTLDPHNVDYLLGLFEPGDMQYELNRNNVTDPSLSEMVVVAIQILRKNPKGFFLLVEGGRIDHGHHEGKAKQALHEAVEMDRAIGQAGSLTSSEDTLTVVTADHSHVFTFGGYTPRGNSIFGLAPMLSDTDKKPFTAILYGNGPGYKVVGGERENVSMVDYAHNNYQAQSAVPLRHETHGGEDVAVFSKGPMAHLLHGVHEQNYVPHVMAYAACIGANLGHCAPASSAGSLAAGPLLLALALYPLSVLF

Vero = test: mammalian cell viability reduction – secondary assay, cytotoxicity control for West Nile virus antiviral project, dose response (AID 1650); type: functional; details: Chlorocebus sabaeus
[16] = target: T5, Heat shock factor protein 1 (Mus musculus, UniProt P38532); test: enhancement of HSF1-driven luciferase signal – cell-based, NIH3T3, luminescence, dose retest, confirmation (AID 435004); type: functional;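 also: stress induced by proteasome inhibitor MG132 added 30 min after compound; luciferase reporter driven by HSF1 response element in NIH3T3 cells; actives raise luminescence as potentiators of the MG132 stress response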
T5 sequence (P38532 whole entry): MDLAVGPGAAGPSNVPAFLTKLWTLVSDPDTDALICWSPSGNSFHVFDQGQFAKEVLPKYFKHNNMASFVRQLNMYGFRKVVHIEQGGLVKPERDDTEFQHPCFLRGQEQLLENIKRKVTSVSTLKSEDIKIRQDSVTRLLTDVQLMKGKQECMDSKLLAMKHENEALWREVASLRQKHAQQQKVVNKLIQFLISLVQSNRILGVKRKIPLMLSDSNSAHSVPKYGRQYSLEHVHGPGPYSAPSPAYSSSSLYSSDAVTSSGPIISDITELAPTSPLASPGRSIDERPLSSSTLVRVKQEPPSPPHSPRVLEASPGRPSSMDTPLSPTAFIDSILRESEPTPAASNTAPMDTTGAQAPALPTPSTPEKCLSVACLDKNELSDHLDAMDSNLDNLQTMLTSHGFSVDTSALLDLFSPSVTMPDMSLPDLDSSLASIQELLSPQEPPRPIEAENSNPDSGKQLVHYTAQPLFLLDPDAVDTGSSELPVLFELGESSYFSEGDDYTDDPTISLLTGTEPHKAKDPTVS

Paired box protein Pax-8 = Paired box protein Pax-8 (Homo sapiens, UniProt Q06710); test: PAX8 transcriptional activity inhibition in RMG-I – RMG-I cells, luciferase, cherry-pick, dose response (AID 687027); type: functional, cell-based;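 also: luciferase reporter driven by Pax8 target thyroperoxidase promoter measured by SteadyGlo luminescence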
Sequence of Paired box protein Pax-8 (Q06710 whole entry): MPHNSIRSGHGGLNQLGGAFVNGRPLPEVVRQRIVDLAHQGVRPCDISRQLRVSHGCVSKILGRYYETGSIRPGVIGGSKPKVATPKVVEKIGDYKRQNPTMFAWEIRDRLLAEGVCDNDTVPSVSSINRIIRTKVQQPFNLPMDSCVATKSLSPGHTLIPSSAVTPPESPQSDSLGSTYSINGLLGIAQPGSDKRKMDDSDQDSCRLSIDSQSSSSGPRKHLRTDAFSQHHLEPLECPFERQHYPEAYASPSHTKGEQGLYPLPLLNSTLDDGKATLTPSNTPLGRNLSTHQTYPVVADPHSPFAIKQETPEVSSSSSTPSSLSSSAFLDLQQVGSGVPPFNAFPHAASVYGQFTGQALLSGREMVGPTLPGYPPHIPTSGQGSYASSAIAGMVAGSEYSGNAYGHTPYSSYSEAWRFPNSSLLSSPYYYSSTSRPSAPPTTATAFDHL

[17] = general cell-killing toxicity readout – plate reader, dry powder samples, cytotoxicity control for PAX8 inhibitor project, dose response (AID 743021); type: functional, cell-based
[18] = target: Alkaline phosphatase, placental type (Homo sapiens, UniProt P05187); test: human placental alkaline phosphatase inhibition – biochemical, luminescence, confirmation (AID 1512); type: functional
Sequence of Alkaline phosphatase, placental type (P05187 whole entry): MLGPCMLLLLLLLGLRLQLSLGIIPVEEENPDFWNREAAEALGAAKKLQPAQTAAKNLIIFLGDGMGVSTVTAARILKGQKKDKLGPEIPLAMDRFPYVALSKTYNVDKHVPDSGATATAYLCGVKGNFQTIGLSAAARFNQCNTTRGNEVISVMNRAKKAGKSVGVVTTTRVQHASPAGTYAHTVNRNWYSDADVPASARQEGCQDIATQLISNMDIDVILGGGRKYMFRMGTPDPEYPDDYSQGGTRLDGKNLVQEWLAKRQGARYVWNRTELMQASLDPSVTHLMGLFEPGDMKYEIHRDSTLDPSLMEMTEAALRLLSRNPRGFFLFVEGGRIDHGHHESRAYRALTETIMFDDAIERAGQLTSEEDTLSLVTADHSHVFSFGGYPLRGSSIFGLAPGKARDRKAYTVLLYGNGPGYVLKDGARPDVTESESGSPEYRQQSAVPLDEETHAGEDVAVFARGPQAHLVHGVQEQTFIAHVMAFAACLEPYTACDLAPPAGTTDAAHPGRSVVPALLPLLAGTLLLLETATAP

Q: With `O=C(Nc1ccc(S(=O)(=O)N2CCCC2)cc1)c1ccc(CN2CCc3ccccc3C2)cc1` as the compound, how does the IC50 [1] read?
A: 0.707 µM (active)

Q: And the IC50 [2]?
A: 0.576 µM (active)

Q: What about the IC50 (Tumor necrosis factor) of the same compound?
A: 0.639 µM (active)

Q: What about the IC50 [3] of the same compound?
A: 0.418 µM (active)

Q: And the IC50 [4]?
A: > 80 µM (inactive)

Q: And the AC50 [5]?
A: 0.575 µM (active)

Q: And the AC50 [6]?
A: 0.292 µM (active)

Q: What about the AC50 [7] of the same compound?
A: 0.406 µM (active)

Q: And the IC50 (HEK293)?
A: 6.77 µM (active)

Q: What does the source list for `CC(=O)n1cc(N(C(=O)CCl)c2ccc([N+](=O)[O-])cc2)c2ccccc21`?
A: EC50 (BJ [8]): 2.65 µM (inconclusive); EC50 (BJ [9]): 2.59 µM (inconclusive); EC50 (BJ [10]): 4.78 µM (inconclusive); EC50 [11]: 2.63 µM (inconclusive); CC50 [12]: 12.3 µM (active); IC50 (Hexokinase HKDC1): 27 µM (inactive); AC50 [13]: 1.59 µM (active); EC50 (Protein RecA): 0.358 µM (active)

Q: Which IC50 [14] does the source give for `O=S(=O)(Nc1ccc2ccccc2c1)c1ccccc1` here?
A: > 100 µM (not active)

Q: What about the IC50 [15] of the same compound?
A: > 100 µM (inactive)

Q: What does the source list for `Cc1ccc(N(NC(=O)C(O)(c2ccccc2)c2ccccc2)C(=O)CCl)cc1`?
A: CC50 (Vero): 6.32 µM (active); EC50 [16]: > 260 µM (inconclusive); CC50 [12]: 7.46 µM (active); AC50 [13]: 4.45 µM (active); EC50 (Protein RecA): 0.529 µM (active); AC50 (Paired box protein Pax-8): 8.18 µM (active); AC50 [17]: 11.8 µM (active)

Q: Which results are given for `Cc1cc(C)nc(SCC(=O)c2cccc(O)c2)n1`?
A: IC50 [18]: > 100 µM (inactive); IC50 [15]: > 100 µM (inactive)
